Reference: ChEMBL document CHEMBL5143537, “Quinazoline-based hydroxamic acid derivatives as dual histone methylation and deacetylation inhibitors for potential anticancer agents” (Bioorg Med Chem, 2022)
pIC50: −log10 of the molar value. Activity calls are given as the source filed them. The rule behind the calls is not given here.

Columns and labels:
[1] = test system: HepG2; test: Cell cycle arrest in human HepG2 cells assessed as accumulation at G2/M phase at 2.5 uM measured after 48 hrs by propidium iodide staining based flow cytometry (reference value: 12.37%); assay type: functional
[2] = test system: HepG2; test: Cell cycle arrest in human HepG2 cells assessed as accumulation at G0/G1 phase at 5 uM measured after 48 hrs by propidium iodide staining based flow cytometry (reference value: 55.24%); assay type: functional
[3] = test system: HepG2; test: Induction of apoptosis in human HepG2 cells assessed as viable cells at 5 uM measured after 48 hrs by Annexin V-FITC/propidium iodide staining based flow cytometry (reference value: 88.58%); assay type: functional; details: read-out: Activity
[4] = test system: HepG2; test: Induction of apoptosis in human HepG2 cells measured after 48 hrs by Annexin V-FITC/propidium iodide staining based flow cytometry; assay type: functional, cell-based; details: dose 1.25-25 µM, DDE = dose-dependent effect
[5] = test system: HepG2; test: Induction of apoptosis in human HepG2 cells assessed as early apoptotic cells at 20 uM measured after 48 hrs by Annexin V-FITC/propidium iodide staining based flow cytometry (reference value: 6.87%); assay type: functional
[6] = test system: HepG2; test: Cell cycle arrest in human HepG2 cells assessed as accumulation at G2/M phase at 5 uM measured after 48 hrs by propidium iodide staining based flow cytometry (reference value: 12.37%); assay type: functional
[7] = molecular target: Histone deacetylase 1 (Homo sapiens, UniProt Q13547); test: Inhibition of recombinant human HDAC1 expressed in baculovirus infection system using Ac-peptide-AMC as substrate preincubated for 15 mins followed by substrate addition and measured after 60 mins by fluorescence assay
[8] = test system: HepG2; test: Induction of apoptosis in human HepG2 cells assessed as increase in cleaved caspase-3 expression at 1.25 to 20 uM measured after 48 hrs by Western blot analysis; assay type: functional, cell-based; details: dose 1.25-20 µM
[9] = test system: HepG2; test: Induction of apoptosis in human HepG2 cells assessed as necrotic cells at 20 uM measured after 48 hrs by Annexin V-FITC/propidium iodide staining based flow cytometry (reference value: 0%); assay type: functional
[10] = Metabolic stability in rat liver microsomes assessed as parent compound remaining at 1 uM measured after 30 mins by LC-MS/MS analysis; assay type: ADME, Microsome; details: read-out: Stability
[11] = test system: HepG2; test: Cell cycle arrest in human HepG2 cells assessed as accumulation at G2/M phase at 10 uM measured after 48 hrs by propidium iodide staining based flow cytometry (reference value: 12.37%); assay type: functional
[12] = test system: A-431; test: Antiproliferative activity against human A-431 cells measured after 72 hrs by MTT assay; assay type: functional, cell-based; details: A-431, 72 h
[13] = test system: K562; test: Antiproliferative activity against human K562 cells measured after 72 hrs by MTT assay; assay type: functional, cell-based; details: K562, 72 h
[14] = test system: HepG2; test: Induction of apoptosis in human HepG2 cells assessed as necrotic cells at 2.5 uM measured after 48 hrs by Annexin V-FITC/propidium iodide staining based flow cytometry (reference value: 0%); assay type: functional
[15] = test system: MDA-MB-231; test: Antiproliferative activity against human MDA-MB-231 cells measured after 72 hrs by MTT assay; assay type: functional, cell-based; details: MDA-MB-231, 72 h
[16] = test system: HeLa; test: Antiproliferative activity against human HeLa cells measured after 72 hrs by MTT assay; assay type: functional, cell-based
[17] = test system: HepG2; test: Cell cycle arrest in human HepG2 cells assessed as accumulation at G0/G1 phase at 10 uM measured after 48 hrs by propidium iodide staining based flow cytometry (reference value: 55.24%); assay type: functional
[18] = test system: HepG2; test: Cell cycle arrest in human HepG2 cells assessed as accumulation at S phase at 2.5 uM measured after 48 hrs by propidium iodide staining based flow cytometry (reference value: 32.39%); assay type: functional
[19] = test system: HepG2; test: Induction of apoptosis in human HepG2 cells assessed as early apoptotic cells at 1.25 uM measured after 48 hrs by Annexin V-FITC/propidium iodide staining based flow cytometry (reference value: 6.87%); assay type: functional
[20] = test system: HepG2; test: Induction of apoptosis in human HepG2 cells assessed as necrotic cells at 10 uM measured after 48 hrs by Annexin V-FITC/propidium iodide staining based flow cytometry (reference value: 0%); assay type: functional
[21] = Effect on H3 expression in human HepG2 cells at 1.25 to 25 uM measured after 24 hrs by Western blot analysis; assay type: toxicity, cell-based; details: hepg2, 24 h, dose 1.25-25 µM
[22] = test system: HepG2; test: Induction of apoptosis in human HepG2 cells assessed as increase in cleaved caspase-7 expression at 1.25 to 20 uM measured after 48 hrs by Western blot analysis; assay type: functional, cell-based; details: dose 1.25-20 µM
[23] = test system: HepG2; test: Cell cycle arrest in human HepG2 cells assessed as accumulation at G0/G1 phase at 2.5 uM measured after 48 hrs by propidium iodide staining based flow cytometry (reference value: 55.24%); assay type: functional
[24] = test system: HepG2; test: Induction of apoptosis in human HepG2 cells assessed as late apoptotic cells at 10 uM measured after 48 hrs by Annexin V-FITC/propidium iodide staining based flow cytometry (reference value: 4.55%); assay type: functional
[25] = test system: HepG2; test: Induction of apoptosis in human HepG2 cells assessed as early apoptotic cells at 10 uM measured after 48 hrs by Annexin V-FITC/propidium iodide staining based flow cytometry (reference value: 6.87%); assay type: functional

Sequence of Histone deacetylase 1 (Q13547 whole entry): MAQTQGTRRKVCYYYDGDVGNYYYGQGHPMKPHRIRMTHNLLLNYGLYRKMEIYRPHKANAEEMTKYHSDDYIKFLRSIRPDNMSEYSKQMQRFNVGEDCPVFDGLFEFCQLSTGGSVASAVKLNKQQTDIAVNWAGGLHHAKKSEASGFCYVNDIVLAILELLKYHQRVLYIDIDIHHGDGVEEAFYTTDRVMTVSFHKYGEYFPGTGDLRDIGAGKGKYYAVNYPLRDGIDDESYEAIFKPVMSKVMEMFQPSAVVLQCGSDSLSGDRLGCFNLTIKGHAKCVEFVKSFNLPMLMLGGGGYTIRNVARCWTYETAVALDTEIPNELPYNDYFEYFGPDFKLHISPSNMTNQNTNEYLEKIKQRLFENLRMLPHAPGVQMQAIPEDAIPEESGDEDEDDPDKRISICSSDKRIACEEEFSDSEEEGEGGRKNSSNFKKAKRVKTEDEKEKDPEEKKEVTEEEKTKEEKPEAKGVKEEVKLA

## COc1cc2nc(N3CCN(CCCCCC(=O)NO)CC3)nc(NC3CCN(Cc4ccccc4)CC3)c2cc1OC
[1]
  Activity: 13.29%
[2]
  Activity: 58.07%
[3]
  viability at 5 µM: 87.3%
[4]
  Activity: Dde
[5]
  Activity: 49.75%
[6]
  Activity: 13.12%
[7]
  pIC50: 7.05
[8]
  Activity: Active
[9]
  Activity: 0%
[10]
  remaining at 0.5 h, 1 µM: 26.8%
[11]
  Activity: 15.52%
[12]
  pIC50: 5.62
[13]
  pIC50: 5.59
[14]
  Activity: 0%
[15]
  pIC50: 5.03
[16]
  pIC50: 5.48
[17]
  Activity: 59.81%
[18]
  Activity: 28.84%
[19]
  Activity: 8.83%
[20]
  Activity: 0%
[21]
  Activity: Non-Toxic
[22]
  Activity: Active
[23]
  Activity: 57.88%
[24]
  Activity: 6.17%
[25]
  Activity: 16.02%
